Experimental data: patent US20100197749A1, “CHEMICAL COMPOUNDS” (ASTRAZENECA AB, priority 2006, published 2010)
pEC50: −log10 of the molar value.

Target: T1, EDG-1/S1P1 receptor (Homo sapiens, UniProt P21453)
T1 construct: expressed in transfected cells; host or cells: U2OS (human osteosarcoma), EDG-1 Transfluor U20S WT Clone #37
Assay: In Vitro Cell Based Receptor Activation Assay-Transfluor Assay
Details: inhibition of S1P-stimulated (375 nM or 750 nM) beta-arrestin GFP relocalization; EDG-1 Transfluor U20S WT Clone #37 cells
Text: The following assay can be used to measure the effects of the compounds of the present invention as S1P1/Edg1 inhibitors.
This cell-based assay was designed to assess the ability of small molecule antagonists to inhibit activation of the GPCR S1P1 in the presence of its cognate ligand S1P. The assay used technology initially developed by Norak Biosciences (Xsira Pharmaceutical) and presently owned by Molecular Devices. A human osteogenic sarcoma (U20S) cell line overexpressing the EDG-1/S1P1) receptor as well as a beta-arrestin/green fluorescent protein (GFP) construct hereafter termed EDG-1 Transfluor U20S WT Clone #37 was employed.
Using a high content screening approach (Cellomics Arrayscan), receptor activity was measured by assessment of the relocalization of beta-arrestin GFP in response to stimulation of EDG-1 by SIP. Specifically, EDG-1 Transfluor U20S WT Clone #37 cells were plated at a density of 6250 cells in 40 μL medium per well in 384 well plastic bottomed microtiter plates (BD Falcon) and incubated overnight at 37° C./5% CO2. Prior to screening, compounds were dissolved in 100% dimethyl sulfoxide (DMSO) to a final stock concentration of 10 mM. […] Plates were then sealed and analysed on the Cellomics Arrayscan using the GPCR signalling algorithm. EC50 values were then calculated using IDBS ActivityBase software.

Row | pEC50 | SMILES
1 | 6.88 | CCn1c(OC)nnc1[C@@H](Cc1cccnc1)NS(=O)(=O)c1ccc(Cl)cc1 [Example 16, 4-Chloro-N-[(R)-1-(4-ethyl-5-methoxy-4H-[1,2,4]triazol-3-yl)-2-pyridin-3-yl-ethyl]benzenesulfonamide]
2 | 6.17 | CCn1c(C(C)NS(=O)(=O)c2ccc(Cl)cc2)nnc1C(F)(F)F (centres unmarked) [Example 11, 4-Chloro-N-[1-(4-ethyl-5-trifluoromethyl-4H-[1,2,4]triazol-3-yl)-ethyl]-benzenesulfonamide]
